# Patent US20080026088A1, “Reduced isoalpha acid based protein kinase modulation cancer treatment” (Metaproteomics, LLC, priority 2006, published 2008)
# Where two headings read alike, the source gives them in different places. Marks after values point to notes of the source that are not given here.
# Key:
# [1] = tested on: LPS-stimulated 3T3-L1 adipocytes; assay: IL-6 secretion in LPS/3T3-L1 adipocytes; type: cell-based, murine; settings: 100 ng LPS/ml, D5 3T3-L1 adipocytes
# [2] = tested on: LPS-treated 3T3-L1 adipocytes; assay: Adiponectin secretion in LPS/3T3-L1 adipocytes; type: cell-based, murine; settings: for Maximum adiponectin stimulation: 100 ng/ml LPS, D5 3T3-L1; for Concentration of maximum stimulation of adiponectin secretion: LPS/3T3-L1 adipocytes; for Emax: Mus musculus, 3T3-L1, at the concentration of maximum stimulation (c1), NS = not significantly different from the LPS control
# [3] = tested on: insulin-resistant 3T3-L1 adipocytes; assay: Adiponectin secretion from insulin-resistant 3T3-L1 adipocytes; type: cell-based, murine; settings: for Adiponectin/IL-6: ratio of Adiponectin Index to IL-6 Index, insulin-resistant 3T3-L1 adipocytes; for EC50: Mus musculus; for Maximum Adiponectin Secretion: estimated from the y-intercept of Hofstee plots; for dose at which maximal adiponectin secretion was observed: of four doses tested
# [4] = tested on: TNFα-treated 3T3-L1 adipocytes; assay: Adiponectin secretion from TNFα-treated 3T3-L1 adipocytes; type: cell-based, murine
# Method: For two days, the cells were allowed grow to reach confluence. […] (3) 0.5 μM dexamethasone and (4) 10 μg/ml insulin (MDI medium). […] Adiponectin Assay—The adiponectin secreted into the medium was quantified using the Mouse Adiponectin Quantikine® Immunoassay kit with no modifications (R&D Systems, Minneapolis, Minn.). […] Statistical Calculations and Interpretation—All assays were preformed in duplicate. […] Differences among the doses and test agents were determined using the Student's t-test without correction for multiple comparisons; the nominal five percent probability of a type I error was selected.
# [5] = tested on: NF-kBp65 nuclear translocation; assay: Nuclear NF-kBp65 (TransAM) in TNFα-treated 3T3-L1 adipocytes; type: cell-based, murine; settings: for inhibition of nuclear translocation of NF-kBp65 / inhibition at 5 µg/mL: 5.0 μg/ml; for inhibition at […] / inhibition at 5 µg/mL: Mus musculus; for inhibition at […]: 2.5 μg/ml
# Method: Cell Culture and Treatment—Following differentiation 3T3-L1 adipocytes were maintained in post-differentiation medium for an additional 40 days. […] Hops derivatives and the positive control pioglitazone were tested at concentrations of 2.5, and 5.0 μg/ml. Test materials were added 1 hour prior to and nuclear extracts were prepared three and 24 hours following treatment with TNFα.
# ELISA—3T3-L1 adipocytes were maintained in growth media for 40 days following differentiation. Nuclear NF-kBp65 was determined using the TransAM™ NF-kB kit from Active Motif (Carlsbad, Calif.) was used with no modifications. Jurkat nuclear extracts provided in the kit were derived from cells cultured in medium supplemented with 50 ng/ml TPA (phorbol, 12-myristate, 13 acetate) and 0.5 μM calcium ionophore A23187 for two hours at 37° C. immediately prior to harvesting.
# Protein assay—Nuclear protein was quantified using the Active Motif Fluorescent Protein Quantification Kit.
# [6] = tested on: TNFα-treated 3T3-L1 adipocytes; assay: IL-6 secretion from TNFα-treated 3T3-L1 adipocytes; type: cell-based, murine; settings: for IL-6 Index: D5 3T3-L1 adipocytes, indexed to TNFα control
# 3T3-L1 adipocytes = assay: Lipogenesis (Oil Red O / BODIPY) in 3T3-L1 adipocytes; type: cell-based, murine; settings: 50 μg test material/ml
# Method: Prior to experiments, cells were cultured in DMEM containing 10% FBS-HI added 50 units penicillin/ml and 50 μg streptomycin/ml, and maintained in log phase prior to experimental setup. Cells were grown in a 5% CO2 humidified incubator at 37° C. Components of the pre-confluent medium included (1) 10% FBS/DMEM containing 4.5 g glucose/L; (2) 50 U/ml penicillin; and (3) 50 μg/ml streptomycin. Growth medium was made by adding 50 ml of heat inactivated FBS and 5 ml of penicillin/streptomycin to 500 ml DMEM. This medium was stored at 4° C. Before use, the medium was warmed to 37° C. in a water bath.
# 3T3-T1 cells were seeded at an initial density of 6×10^4 cells/cm^2 in 24-well plates. For two days, the cells were allowed grow to reach confluence. […]
# Oil Red O Staining—Triglyceride content of D6/D7-differentiated 3T3-L1 cells was estimated with Oil Red O according to the method of Kasturi and Joshi [Kasturi, R. and Joshi, V. C. […] The resulting stained oil droplets were extracted from the cells with isopropanol and quantified by spectrophotometric analysis at 540 nm (MEL312e BIO-KINETICS READER, Bio-Tek Instruments, Winooski, Vt.). […]
# [7] = Non-fasting serum glucose and insulin in db/db diabetic mice; type: in vivo, mouse; settings: three consecutive days
# Method: The Model—Male, C57BLKS/J m^+/m^+Lepr^db (db/db) mice were used to assess the potential of the test materials to reduce fasting serum glucose or insulin concentrations. This strain of mice is resistant to leptin by virtue of the absence of a functioning leptin receptor.
# Testing Procedure—Test substances were administered daily by gavage in 0.2% Tween-80. Serum was collected from the retroorbital sinus before the initial dose and ninety minutes after the third and final dose. Non-fasting serum glucose was determined enzymatically by the mutarotase/glucose oxidase method and serum insulin was determined by a mouse specific ELISA.
# The Model—Male, C57BLKS/J m+/m+ Leprdb (db/db) mice were used to assess the potential of the test materials to reduce fasting serum glucose or insulin concentrations. This strain of mice is resistant to leptin by virtue of the absence of a functioning leptin receptor.
# Testing Procedure—Test substances were administered daily by gavage in 0.2% Tween-80. Serum was collected from the retroorbital sinus before the initial dose and ninety minutes after the fifth and final dose. Non-fasting serum glucose was determined enzymatically by the mutarotase/glucose oxidase method and serum insulin was determined by a mouse specific ELISA.
# [8] = Collagen induced rheumatoid arthritis murine model; type: in vivo, mouse; settings: 10 mg/kg
# [9] = tested on: RL 95-2 endometrial cancer cells; assay: Cancer cell proliferation, CyQuant; type: cell-based; settings: Homo sapiens, RL95-2; 10 μg/ml, 72 hours; read-out: inhibition of cell proliferation relative to the DMSO solvent control
# Method: Methods—The inhibitory effects of test compounds of the present invention on cancer cell proliferation were examined in the RL 95-2 endometrial cancer cell model (an over expressor of AKT kinase), and in the HT-29 (constitutively expressing COX-2) and SW480 (constitutively expressing activated AKT kinase) colon cancer cell models. Briefly, the target cells were plated into 96 well tissue culture plates and allowed to grow until subconfluent. The cells were then treated for 72 hours with various amounts of the test compounds as described in Example 4 and relative cell proliferation determined by the CyQuant (Invitrogen, Carlsbad, Calif.) commercial fluorescence assay.
# [10] = tested on: A549 pulmonary epithelial cells; assay: Mite dust allergen stimulated PGE2 biosynthesis in A549 cells; type: cell-based, human; settings: 10 μg/ml, added 60 min before mite dust allergen 1000 ng/ml, 18 h
# From the text: Mite dust allergen isolation—Dermatophagoides farinae is the American house dust mite. D. farinae were raised on a 1:1 ratio of Purina Laboratory Chow (Ralston Purina, Co, St. Louis, Mo.) and Fleischmann's granulated dry yeast (Standard Brands, Inc. New York, N.Y.) at room temperature and 75% humidity. Live mites were aspirated from the culture container as they migrated from the medium, killed by freezing, desiccated and stored at 0% humidity. The allergenic component of the mite dust was extracted with water at ambient temperature. Five-hundred mg of mite powder were added to 5 ml of water (1:10 w/v) in a 15 ml conical centrifuge tube (VWR, Rochester, N.Y.), shaken for one minute and allowed to stand overnight at ambient temperature. The next day, the aqueous phase was filtered using a 0.2 μm disposable syringe filter (Nalgene, Rochester, N.Y.). The filtrate was termed mite dust allergen and used to test for induction of PGE2 biosynthesis in A549 pulmonary epithelial cells.
# Cell culture and treatment—The human airway epithelial cell line, A549 (American Type Culture Collection, Bethesda, Md.) was cultured and treated as previously described in Example 6. Mite allergen was added to the culture medium to achieve a final concentration of 1000 ng/ml. Eighteen hours later, the media were sampled for PGE2 determination.
# [11] = Mus musculus, 3T3-L1, 1.0 μg/ml, with 10 ng TNFα/ml, read-out: % Inhibition of IL-6 secretion
# [12] = 3T3-L1, 3 h, three hours post TNFα
compound,measurement,setting,value
CC(=O)Oc1ccccc1C(=O)O [Aspirin],Concentration providing the maximum inhibition of IL-6 secretion,[1],25.0 µg/mL
same,Maximum adiponectin stimulation,[2],failed to induce adiponectin secretion
same,Concentration of maximum stimulation of adiponectin secretion,[2],113 µg/mL
same,Emax,[2],< 7%
CC(C)CCC1=C(O)C(C(=O)C(C)C)=C(O)C(CCC(C)C)(CCC(C)C)C1=O [Hexahydrocolupulone (HHCL)],Adiponectin/IL-6,[3]; 50.0 μg/ml,0.60#
"COc1ccc2c(c1)c(CC(=O)O)c(C)n2C(=O)c1ccc(Cl)cc1 [Indomethacin, indomethacin]",Maximum adiponectin stimulation,[2],9%
CCc1ccc(CCOc2ccc(CC3SC(=O)NC3=O)cc2)nc1 (centres unmarked) [Pioglitazone],Concentration of maximum adiponectin secretion,[4]; 10 ng TNFα/ml,1.25 µg/mL
same,maximum increase of adiponectin secretion over the TNFα control,[4]; 10 ng TNFα/ml,80%
same,Adiponectin Index Observed,"[4]; 1.0 μg/ml, TNFα/3T3-L1 model, indexed to TNFα control (Table 26)",1.80
same,Concentration of maximum adiponectin secretion,"[4]; Table 16, 10 ng TNFα/ml",1.25 µg/mL
same,Adiponectin Index,"[4]; Table 16, maximum over four doses, 10 ng TNFα/ml",1.47
same,Concentration providing the maximum inhibition of IL-6 secretion,[1],5.00 µg/mL
same,Maximum adiponectin stimulation,[2],12%
same,Concentration of maximum stimulation of adiponectin secretion,[2],1.25 µg/mL
same,Emax,[2],12%
same,inhibition of nuclear translocation of NF-kBp65,[5]; 24 hours post TNFα,did not inhibit
same,inhibition of nuclear translocation of NF-kBp65,[5]; three hours post TNFα,did not inhibit
Cc1c(C)c2c(c(C)c1O)CCC(C)(COc1ccc(CC3SC(=O)NC3=O)cc1)O2 (centres unmarked) [Troglitazone],Adiponectin/IL-6,[3]; 5.0 μg/ml,1.12
same,EC50,"[3]; 3T3-L1, half maximal adiponectin secretion, estimated from the slope of Hofstee plots, insulin-resistant 3T3-L1 cells, read-out: Test Material at Half Maximal Secretion",0.085 µg/mL
same,EC50,"[3]; 3T3-L1, slope of modified Hofstee plot, read-out: concentration required for half maximal adiponectin secretion",0.085 µg/mL
same,Maximum Adiponectin Secretion,[3]; insulin-resistant 3T3-L1 cells,2.29 Fold relative to control
same,Maximum adiponectin secretion estimated from the y-intercept,[3]; modified Hofstee plot,2.29 fold
same,Concentration of maximum adiponectin secretion,[4]; 10 ng TNFα/ml,0.625 µg/mL
same,maximum increase of adiponectin secretion over the TNFα control,[4]; 10 ng TNFα/ml,51%
same,inhibition at 1 µg/mL,"[6]; Mus musculus, 3T3-L1, 1 μg/ml, 10 ng TNFα/ml, read-out: inhibition of IL-6 secretion relative to the controls",34%
same,inhibition at 1 µg/mL,[6]; [11],34%
same,Concentration providing the maximum inhibition of IL-6 secretion,[1],10.0 µg/mL
same,Maximum adiponectin stimulation,[2],15%
same,Concentration of maximum stimulation of adiponectin secretion,[2],0.625 µg/mL
same,Emax,[2],15%
"CC(C)CCC1=C(O)C(C(=O)C(C)C)=C(O)C(CCC(C)C)(CCC(C)C)C1=O [hexahydro colupulone, hexahydrocolupulone]",Maximum Adiponectin Secretion,[3]; insulin-resistant 3T3-L1 cells,1.83 Fold relative to control
same,dose at which maximal adiponectin secretion was observed,[3],12.5 µg/mL
same,concentration required for half maximal adiponectin secretion,[3]; slope of modified Hofstee plot,3.2 µg/mL
CC(C)Cc1ccc(C(C)C(=O)O)cc1 (centres unmarked) [ibuprofen],Concentration providing the maximum inhibition of IL-6 secretion,[1],0.625 µg/mL
same,Maximum adiponectin stimulation,[2],22%
same,Concentration of maximum stimulation of adiponectin secretion,[2],0.625 µg/mL
same,Emax,[2],22%
"CN(C)C(=N)N=C(N)N [metformin, Metformin]",lipogenic index (observed),3T3-L1 adipocytes,0.79
same,IL-6 Index,"[6]; 1.0 μg/ml, with 10 ng TNFα/ml",0.91
same,IL-6 Index,"[6]; 5.0 μg/ml, with 10 ng TNFα/ml",0.96
same,IL-6 Index,"[6]; 10 μg/ml, with 10 ng TNFα/ml",0.78
same,IL-6 Index,"[6]; 50 μg/ml, with 10 ng TNFα/ml",0.78
same,inhibition at 1 µg/mL,[6]; [11],9%
same,inhibition at 5 µg/mL,"[6]; Mus musculus, 3T3-L1, 5.0 μg/ml, with 10 ng TNFα/ml",4%
same,inhibition at 10 µg/mL,"[6]; Mus musculus, 3T3-L1, 10 μg/ml, with 10 ng TNFα/ml",22%
same,inhibition at 50 µg/mL,"[6]; Mus musculus, 3T3-L1, 50 μg/ml, with 10 ng TNFα/ml",22%
same,reduction in serum insulin,[7],17%
C[C@]12C=CC(=O)C=C1CC[C@@H]1[C@@H]2[C@@H](O)C[C@@]2(C)[C@H]1CC[C@]2(O)C(=O)CO [prednisolone],days with significant reduction of arthritic index,[8],30 to 42 days
O=C(O)c1ccccc1O [salicylic acid],Concentration providing the maximum inhibition of IL-6 secretion,[1],50.0 µg/mL
same,Maximum adiponectin stimulation,[2],failed to induce adiponectin secretion
same,Concentration of maximum stimulation of adiponectin secretion,[2],173 µg/mL
same,Emax,[2],< 7%
COc1cc(O)c(CC=C(C)C)c(O)c1C(=O)/C=C/c1ccc(O)cc1 [xanthohumol],dose at which maximal adiponectin secretion was observed,[3],1.25 µg/mL
same,inhibition at […],[5]; [12],6.9%
same,inhibition at 5 µg/mL,[5]; [12],15.6%
same,inhibition at […],"[5]; 3T3-L1, 24 hours post TNFα",8%
same,inhibition at 5 µg/mL,"[5]; 3T3-L1, 24 hours post TNFα",13.4%
same,inhibition at 10 µg/mL,[9],> 50%
Beta acids,Percent PGE2 Inhibition,[10],83%
